In US20100041089A1, “IMPROVED METHOD FOR DETECTING CHEMICAL […]” (priority 2006, published 2010):

Tested on: yeast genes (expressed mRNA)
Experiment: DNA chip measurement of expressed mRNA of yeast genes after culture with a toxic chemical substance
Format: cell-based, Saccharomyces cerevisiae S288C
Outline: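 Yeast S288C, YPD 25° C; toxicant at log phase, 2 h, sublethal growth-inhibiting conc.; no-chemical control. Hot SDS/acetate RNA extraction, oligo-dT mRNA, Cy3/Cy5-dUTP RT. Whole-genome chip, 65° C >12 h. Readout: treated/control intensity ratio, ≥2 significant.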

Q: `C=CC=O` [(14), Acrolein] was tested. Which “The level of expressed mRNA in the presence of chemical substance/The level of expressed mRNA in the absence of chemical substance” value (yeast gene YKL071W, cultured two hours with substance) did it give?
A: 21.9

Q: What about the “The level of expressed mRNA in the presence of chemical substance/The level of expressed mRNA in the absence of chemical substance” value (yeast gene YKL086W, cultured two hours with substance) of the same compound?
A: 2.9

Q: What about the “The level of expressed mRNA in the presence of chemical substance/The level of expressed mRNA in the absence of chemical substance” value (yeast gene YKL151C, cultured two hours with substance) of the same compound?
A: 1.3

Q: What about the “The level of expressed mRNA in the presence of chemical substance/The level of expressed mRNA in the absence of chemical substance” value (yeast gene YKL153W, cultured two hours with substance) of the same compound?
A: 1.1

Q: And the “The level of expressed mRNA in the presence of chemical substance/The level of expressed mRNA in the absence of chemical substance” value (yeast gene YKL195W, cultured two hours with substance)?
A: 1.6

Q: And the “The level of expressed mRNA in the presence of chemical substance/The level of expressed mRNA in the absence of chemical substance” value (yeast gene YKL198C)?
A: 6.6

Q: And the “The level of expressed mRNA in the presence of chemical substance/The level of expressed mRNA in the absence of chemical substance” value (yeast gene YKR049C, cultured two hours with substance)?
A: 2.1

Q: And the “The level of expressed mRNA in the presence of chemical substance/The level of expressed mRNA in the absence of chemical substance” value (yeast gene YKR076W)?
A: 14.7

Q: And the “The level of expressed mRNA in the presence of chemical substance/The level of expressed mRNA in the absence of chemical substance” value (yeast gene YKR091W, cultured two hours with substance)?
A: 1.9

Q: And the “The level of expressed mRNA in the presence of chemical substance/The level of expressed mRNA in the absence of chemical substance” value (yeast gene YKR097W, cultured for two hours with substance)?
A: 2.1

Q: What about the “The level of expressed mRNA in the presence of chemical substance/The level of expressed mRNA in the absence of chemical substance” value (yeast gene YLL056C, cultured two hours with substance) of the same compound?
A: 11.0

Q: And the “The level of expressed mRNA in the presence of chemical substance/The level of expressed mRNA in the absence of chemical substance” value (yeast gene YLL060C (detoxification protein gene))?
A: 10.6

Q: And the “The level of expressed mRNA in the presence of chemical substance/The level of expressed mRNA in the absence of chemical substance” value (yeast gene YLL060C (stress protein genes))?
A: 10.6

Q: What about the “The level of expressed mRNA in the presence of chemical substance/The level of expressed mRNA in the absence of chemical substance” value (yeast gene YLR031W, cultured two hours with substance) of the same compound?
A: 1.5

Q: What about the “The level of expressed mRNA in the presence of chemical substance/The level of expressed mRNA in the absence of chemical substance” value (yeast gene YLR054C, cultured two hours with substance) of the same compound?
A: 1.1

Q: And the “The level of expressed mRNA in the presence of chemical substance/The level of expressed mRNA in the absence of chemical substance” value (yeast gene YLR149C, cultured two hours with substance)?
A: 1.2

Q: What about the “The level of expressed mRNA in the presence of chemical substance/The level of expressed mRNA in the absence of chemical substance” value (yeast gene YLR152C, cultured two hours with substance) of the same compound?
A: 1.2

Q: What about the “The level of expressed mRNA in the presence of chemical substance/The level of expressed mRNA in the absence of chemical substance” value (yeast gene YLR194C, cultured two hours with substance) of the same compound?
A: 1.2

Q: And the “The level of expressed mRNA in the presence of chemical substance/The level of expressed mRNA in the absence of chemical substance” value (yeast gene YLR205C, cultured two hours with substance)?
A: 2.4

Q: And the “The level of expressed mRNA in the presence of chemical substance/The level of expressed mRNA in the absence of chemical substance” value (yeast gene YLR280C, cultured two hours with substance)?
A: 0.5

Q: And the “The level of expressed mRNA in the presence of chemical substance/The level of expressed mRNA in the absence of chemical substance” value (yeast gene YLR324W, cultured two hours with substance)?
A: 1.4

Q: What about the “The level of expressed mRNA in the presence of chemical substance/The level of expressed mRNA in the absence of chemical substance” value (yeast gene YLR350W, cultured two hours with substance) of the same compound?
A: 2.8

Q: And the “The level of expressed mRNA in the presence of chemical substance/The level of expressed mRNA in the absence of chemical substance” value (yeast gene YLR387C, cultured two hours with substance)?
A: 1.7

Q: What about the “The level of expressed mRNA in the presence of chemical substance/The level of expressed mRNA in the absence of chemical substance” value (yeast gene YLR408C, cultured two hours with the substance) of the same compound?
A: 2.1

Q: And the “The level of expressed mRNA in the presence of chemical substance/The level of expressed mRNA in the absence of chemical substance” value (yeast gene YLR460C, cultured two hours with substance)?
A: 3.5

Q: And the “The level of expressed mRNA in the presence of chemical substance/The level of expressed mRNA in the absence of chemical substance” value (yeast gene YML054C, cultured for two hours with substance)?
A: 2.1

Q: And the “The level of expressed mRNA in the presence of chemical substance/The level of expressed mRNA in the absence of chemical substance” value (yeast gene YML087C, cultured for two hours with substance)?
A: 2.1

Q: And the “The level of expressed mRNA in the presence of chemical substance/The level of expressed mRNA in the absence of chemical substance” value (yeast gene YML117W, cultured two hours with substance)?
A: 0.8

Q: And the “The level of expressed mRNA in the presence of chemical substance/The level of expressed mRNA in the absence of chemical substance” value (yeast gene YMR009W, cultured two hours with substance)?
A: 1.9

Q: And the “The level of expressed mRNA in the presence of chemical substance/The level of expressed mRNA in the absence of chemical substance” value (yeast gene YMR067C, cultured two hours with substance)?
A: 1.5

Q: What about the “The level of expressed mRNA in the presence of chemical substance/The level of expressed mRNA in the absence of chemical substance” value (yeast gene YMR090W, cultured two hours with substance) of the same compound?
A: 6.5

Q: What about the “The level of expressed mRNA in the presence of chemical substance/The level of expressed mRNA in the absence of chemical substance” value (yeast gene YMR095C, cultured two hours with substance) of the same compound?
A: 2.2

Q: What about the “The level of expressed mRNA in the presence of chemical substance/The level of expressed mRNA in the absence of chemical substance” value (yeast gene YMR096W, DNA repair protein genes, cultured two hours with substance) of the same compound?
A: 4.7

Q: And the “The level of expressed mRNA in the presence of chemical substance/The level of expressed mRNA in the absence of chemical substance” value (yeast gene YMR097C, cultured two hours with substance)?
A: 2.1

Q: And the “The level of expressed mRNA in the presence of chemical substance/The level of expressed mRNA in the absence of chemical substance” value (yeast gene YMR102C, cultured two hours with substance)?
A: 0.7

Q: What about the “The level of expressed mRNA in the presence of chemical substance/The level of expressed mRNA in the absence of chemical substance” value (yeast gene YMR107W, cultured two hours with substance) of the same compound?
A: 8.1

Q: What about the “The level of expressed mRNA in the presence of chemical substance/The level of expressed mRNA in the absence of chemical substance” value (yeast gene YMR140W, cultured two hours with substance) of the same compound?
A: 1.2

Q: What about the “The level of expressed mRNA in the presence of chemical substance/The level of expressed mRNA in the absence of chemical substance” value (yeast gene YMR180C, cultured two hours with substance) of the same compound?
A: 1.7

Q: And the “The level of expressed mRNA in the presence of chemical substance/The level of expressed mRNA in the absence of chemical substance” value (yeast gene YMR184W, cultured two hours with substance)?
A: 1.5

Q: What about the “The level of expressed mRNA in the presence of chemical substance/The level of expressed mRNA in the absence of chemical substance” value (yeast gene YMR191W, cultured two hours with substance) of the same compound?
A: 1.5

Q: And the “The level of expressed mRNA in the presence of chemical substance/The level of expressed mRNA in the absence of chemical substance” value (yeast gene YMR195W, cultured two hours with substance)?
A: 1.3

Q: What about the “The level of expressed mRNA in the presence of chemical substance/The level of expressed mRNA in the absence of chemical substance” value (yeast gene YMR295C, cultured two hours with substance) of the same compound?
A: 1.3
